According to patent US8455544B2, “Synthetic triterpenoids and methods of use in the treatment of disease” (Reata Pharmaecuticals, Inc., priority 2008, dated 2013):

Legend:
[1] = tested on: NQO1 in Hepa1c1c7 murine hepatoma cells; details: concentration required to induce a two-fold increase in expression of NQO1, Hepa1c1c7 cells; cited from earlier work
[2] = tested on: circulating endothelial cells (CECs); experiment: Circulating endothelial cells (CECs) and iNOS-positive CECs, Phase II study; assay type: in vivo, human
Excerpt: The mean number of CECs in cells/mL is shown for intent-to-treat (ITT) and elevated baseline groups, both before and after the 28 day RTA treatment. The reduction for the Intent-to-treat group was approximately 20%, and the reduction in the elevated baseline group (>5 CECs/ml) was approximately 33%. The fraction of iNOS-positive CECs was reduced approximately 29%.
CECs were isolated from whole blood by using CD146 Ab (an antibody to the CD146 antigen that is expressed on endothelial cells and leukocytes). After CEC isolation, a FITC (fluorescein isothiocyanate) conjugated CD105 Ab (a specific antibody for endothelial cells) is used to identify CECs using the CellSearch™ system. A fluorescent conjugate of CD45 Ab was added to stain the leukocytes, and these were then gated out. For a general overview of this method, see Blann et al., (2005), which is incorporated herein by reference in its entirety. CEC samples were also assessed for the presence of iNOS by immunostaining.

[3] = tested on: cisplatin-induced renal toxicity; experiment: Rat cisplatin-induced acute renal injury; assay type: in vivo
Method: FIGS. 2a-c—RTA 402 reduces cisplatin-induced renal toxicity. Rats were administered RTA 402 at 10 mg/kg or simply the vehicle (sesame oil) every day by oral gavage beginning on Day −1. On Day 0, the rats received an intravenous injection of cisplatin at 6 mg/kg. Blood samples were drawn on the indicated days and the levels of creatinine (FIG. 2a) and blood urea nitrogen (BUN) (FIG. 2b) were measured as markers of renal damage. A statistically significant difference was observed between the vehicle-treated and RTA 402-treated groups on Day 3 (creatinine) and Day 5 (creatinine and BUN). (FIG. 2c) Less damage to the proximal tubules is observed in RTA 402-treated animals compared to vehicle-treated animals.
In another model of acute renal injury, rats were injected intravenously with the antineoplastic agent cisplatin. In humans, nephrotoxicity is a dose-limiting side effect of treatment with cisplatin. Cisplatin-induced damage to the proximal tubules is thought to be mediated by increased inflammation, oxidative stress, and apoptosis (Yao et al., 2007). Rats treated with a single dose of cisplatin at 6 mg/kg developed renal insufficiency as measured by increased blood levels of creatinine and BUN.

RAW264.7 macrophages = experiment: Cell viability, WST-1 reagent; assay type: cell-based; details: Mus musculus, RAW264.7 (20 ng/ml IFNγ)
[4] = tested on: patients with diabetic nephropathy; experiment: Hyperinsulinemic euglycemic clamp test, Phase II study; assay type: in vivo, human; details: after the 28 day treatment
[5] = 10 mg/kg oral gavage daily from one day prior to cisplatin 6 mg/kg i.v.

COC(=O)[C@]12CCC(C)(C)C[C@H]1[C@H]1C(=O)C=C3[C@@]4(C)C=C(C#N)C(=O)C(C)(C)[C@@H]4CC[C@@]3(C)[C@]1(C)CC2 [RTA 402, methyl-2-cyano-3,12-dioxooleana-1,9-dien-28-oic acid]
NQO1 CD [1]: 1.0 nM | Reduction of mean number of CECs ([2]; 28 days, elevated baseline group (>5 CECs/ml)): approximately 33% | Reduction in CECs ([2]; 28 days, elevated baseline group, n=14, p=0.02): 40% | Reduction of the fraction of iNOS-positive CECs ([2]; 28 days, immunostaining): approximately 29% | Reduction of mean number of CECs ([2]; 28 days, intent-to-treat group): approximately 20% | Reduction in CECs ([2]; 28 days, intent-to-treat group, n=20): 27% | Patients with a normal level for CECs post-treatment ([2]; of the elevated baseline group, n=14): nine | Normalization of CEC values (≦5 cells/mL), patients ([2]; patients with elevated baseline): 11 out of the 19 | Extent of proximal tubule damage (histological evaluation) compared to vehicle ([3]; 10 mg/kg oral gavage daily): improvement | Blood levels of BUN [3, 5]: significantly reduced | Blood levels of creatinine [3, 5]: significantly reduced | IC50 (RAW264.7 macrophages): 80 nM | Glucose disposal rate (GDR) [4]: improvements | Glucose disposal rate (GDR) ([4]; more severely impaired patients (GDR<4), p≦0.02): statistically significant improvements
